# Reference: the NIST ThermoML archive (doi:10.1021/je0202073)
# ± gives the expanded uncertainty stated by the source.
# How the values were obtained:
# [1] = excess molar enthalpy (molar enthalpy of mixing); xn = mol fraction of the nth substance listed; conditions: 101.3 kPa, Liquid, Calvet calorimetry
# [2] = xn = mol fraction of the nth substance listed; conditions: 101.3 kPa, Liquid
compound,measurement,setting,value
CC(C)(C)O [2-methylpropan-2-ol] + CCOC(C)=O,excess molar enthalpy,"[1]; 299.15 K, x2 = 0.0546",0.0899 ± 0.00311 kcal/mol
same,excess molar enthalpy,"[1]; 299.15 K, x2 = 0.1163",0.178 ± 0.00359 kcal/mol
same,excess molar enthalpy,"[1]; 299.15 K, x2 = 0.181",0.263 ± 0.00406 kcal/mol
same,excess molar enthalpy,"[1]; 299.15 K, x2 = 0.2456",0.332 ± 0.00454 kcal/mol
same,excess molar enthalpy,"[1]; 299.15 K, x2 = 0.3079",0.385 ± 0.00502 kcal/mol
same,excess molar enthalpy,"[1]; 299.15 K, x2 = 0.3672",0.422 ± 0.00526 kcal/mol
same,excess molar enthalpy,"[1]; 299.15 K, x2 = 0.4207",0.445 ± 0.0055 kcal/mol
same,excess molar enthalpy,"[1]; 299.15 K, x2 = 0.4707",0.459 ± 0.00574 kcal/mol
same,excess molar enthalpy,"[1]; 299.15 K, x2 = 0.5157",0.464 ± 0.00574 kcal/mol
same,excess molar enthalpy,"[1]; 299.15 K, x2 = 0.5541",0.462 ± 0.00574 kcal/mol
same,excess molar enthalpy,"[1]; 299.15 K, x2 = 0.564",0.46 ± 0.00574 kcal/mol
same,excess molar enthalpy,"[1]; 299.15 K, x2 = 0.6199",0.444 ± 0.0055 kcal/mol
same,excess molar enthalpy,"[1]; 299.15 K, x2 = 0.68",0.413 ± 0.00526 kcal/mol
same,excess molar enthalpy,"[1]; 299.15 K, x2 = 0.7438",0.365 ± 0.00502 kcal/mol
same,excess molar enthalpy,"[1]; 299.15 K, x2 = 0.8091",0.299 ± 0.0043 kcal/mol
same,excess molar enthalpy,"[1]; 299.15 K, x2 = 0.8769",0.212 ± 0.00382 kcal/mol
same,excess molar enthalpy,"[1]; 299.15 K, x2 = 0.9385",0.117 ± 0.00335 kcal/mol
same,excess molar enthalpy,"[1]; 318.15 K, x2 = 0.0538",0.0799 ± 0.00311 kcal/mol
same,excess molar enthalpy,"[1]; 318.15 K, x2 = 0.1146",0.164 ± 0.00335 kcal/mol
same,excess molar enthalpy,"[1]; 318.15 K, x2 = 0.1733",0.24 ± 0.00382 kcal/mol
same,excess molar enthalpy,"[1]; 318.15 K, x2 = 0.2313",0.307 ± 0.0043 kcal/mol
same,excess molar enthalpy,"[1]; 318.15 K, x2 = 0.2953",0.361 ± 0.00478 kcal/mol
same,excess molar enthalpy,"[1]; 318.15 K, x2 = 0.3487",0.396 ± 0.00502 kcal/mol
same,excess molar enthalpy,"[1]; 318.15 K, x2 = 0.3987",0.422 ± 0.00526 kcal/mol
same,excess molar enthalpy,"[1]; 318.15 K, x2 = 0.4461",0.438 ± 0.0055 kcal/mol
same,excess molar enthalpy,"[1]; 318.15 K, x2 = 0.4878",0.445 ± 0.0055 kcal/mol
same,excess molar enthalpy,"[1]; 318.15 K, x2 = 0.5176",0.448 ± 0.0055 kcal/mol
same,excess molar enthalpy,"[1]; 318.15 K, x2 = 0.5676",0.444 ± 0.0055 kcal/mol
same,excess molar enthalpy,"[1]; 318.15 K, x2 = 0.6236",0.429 ± 0.0055 kcal/mol
same,excess molar enthalpy,"[1]; 318.15 K, x2 = 0.6844",0.398 ± 0.00502 kcal/mol
same,excess molar enthalpy,"[1]; 318.15 K, x2 = 0.7436",0.352 ± 0.00478 kcal/mol
same,excess molar enthalpy,"[1]; 318.15 K, x2 = 0.8108",0.285 ± 0.0043 kcal/mol
same,excess molar enthalpy,"[1]; 318.15 K, x2 = 0.8797",0.198 ± 0.00359 kcal/mol
same,excess molar enthalpy,"[1]; 318.15 K, x2 = 0.9442",0.104 ± 0.00311 kcal/mol
same,excess molar volume,"[2]; 303.15 K, x2 = 0.0458",1.14e-06 ± 7e-08 m3/mol
same,excess molar volume,"[2]; 303.15 K, x2 = 0.0972",2.65e-06 ± 8e-08 m3/mol
same,excess molar volume,"[2]; 303.15 K, x2 = 0.1702",4.43e-06 ± 9e-08 m3/mol
same,excess molar volume,"[2]; 303.15 K, x2 = 0.1982",4.99e-06 ± 8e-08 m3/mol
same,excess molar volume,"[2]; 303.15 K, x2 = 0.2483",5.78e-06 ± 9e-08 m3/mol
same,excess molar volume,"[2]; 303.15 K, x2 = 0.2718",6.12e-06 ± 9e-08 m3/mol
same,excess molar volume,"[2]; 303.15 K, x2 = 0.3074",6.6e-06 ± 9e-08 m3/mol
same,excess molar volume,"[2]; 303.15 K, x2 = 0.3613",7.08e-06 ± 1e-07 m3/mol
same,excess molar volume,"[2]; 303.15 K, x2 = 0.3973",7.3e-06 ± 1e-07 m3/mol
same,excess molar volume,"[2]; 303.15 K, x2 = 0.4626",7.52e-06 ± 1e-07 m3/mol
same,excess molar volume,"[2]; 303.15 K, x2 = 0.5178",7.55e-06 ± 1e-07 m3/mol
same,excess molar volume,"[2]; 303.15 K, x2 = 0.5274",7.54e-06 ± 1e-07 m3/mol
same,excess molar volume,"[2]; 303.15 K, x2 = 0.5449",7.51e-06 ± 1e-07 m3/mol
same,excess molar volume,"[2]; 303.15 K, x2 = 0.5624",7.48e-06 ± 1e-07 m3/mol
same,excess molar volume,"[2]; 303.15 K, x2 = 0.5722",7.42e-06 ± 1e-07 m3/mol
same,excess molar volume,"[2]; 303.15 K, x2 = 0.5885",7.35e-06 ± 1e-07 m3/mol
same,excess molar volume,"[2]; 303.15 K, x2 = 0.5998",7.3e-06 ± 1e-07 m3/mol
same,excess molar volume,"[2]; 303.15 K, x2 = 0.6022",7.27e-06 ± 1e-07 m3/mol
same,excess molar volume,"[2]; 303.15 K, x2 = 0.6086",7.2e-06 ± 1e-07 m3/mol
same,excess molar volume,"[2]; 303.15 K, x2 = 0.6124",7.17e-06 ± 1e-07 m3/mol
same,excess molar volume,"[2]; 303.15 K, x2 = 0.6336",7.06e-06 ± 1e-07 m3/mol
same,excess molar volume,"[2]; 303.15 K, x2 = 0.6501",6.87e-06 ± 1e-07 m3/mol
same,excess molar volume,"[2]; 303.15 K, x2 = 0.7084",6.24e-06 ± 9e-08 m3/mol
same,excess molar volume,"[2]; 303.15 K, x2 = 0.7732",5.29e-06 ± 9e-08 m3/mol
same,excess molar volume,"[2]; 303.15 K, x2 = 0.8111",4.6e-06 ± 8e-08 m3/mol
same,excess molar volume,"[2]; 303.15 K, x2 = 0.8533",3.72e-06 ± 8e-08 m3/mol
same,excess molar volume,"[2]; 303.15 K, x2 = 0.8915",2.84e-06 ± 8e-08 m3/mol
same,excess molar volume,"[2]; 303.15 K, x2 = 0.9686",8.6e-07 ± 7e-08 m3/mol
same,excess molar volume,"[2]; 318.15 K, x2 = 0.0796",2.37e-06 ± 7e-08 m3/mol
same,excess molar volume,"[2]; 318.15 K, x2 = 0.1377",3.7e-06 ± 8e-08 m3/mol
same,excess molar volume,"[2]; 318.15 K, x2 = 0.1899",4.83e-06 ± 9e-08 m3/mol
same,excess molar volume,"[2]; 318.15 K, x2 = 0.2558",6.14e-06 ± 1e-07 m3/mol
same,excess molar volume,"[2]; 318.15 K, x2 = 0.2985",6.84e-06 ± 1e-07 m3/mol
same,excess molar volume,"[2]; 318.15 K, x2 = 0.3703",7.44e-06 ± 1e-07 m3/mol
same,excess molar volume,"[2]; 318.15 K, x2 = 0.4344",7.86e-06 ± 1e-07 m3/mol
same,excess molar volume,"[2]; 318.15 K, x2 = 0.4633",7.93e-06 ± 1e-07 m3/mol
same,excess molar volume,"[2]; 318.15 K, x2 = 0.5377",7.95e-06 ± 1.1e-07 m3/mol
same,excess molar volume,"[2]; 318.15 K, x2 = 0.5626",7.87e-06 ± 1e-07 m3/mol
same,excess molar volume,"[2]; 318.15 K, x2 = 0.6284",7.55e-06 ± 1e-07 m3/mol
same,excess molar volume,"[2]; 318.15 K, x2 = 0.6913",7e-06 ± 1e-07 m3/mol
same,excess molar volume,"[2]; 318.15 K, x2 = 0.767",5.96e-06 ± 9e-08 m3/mol
same,excess molar volume,"[2]; 318.15 K, x2 = 0.8516",4.18e-06 ± 8e-08 m3/mol
same,excess molar volume,"[2]; 318.15 K, x2 = 0.8891",3.61e-06 ± 8e-08 m3/mol
same,excess molar volume,"[2]; 318.15 K, x2 = 0.9294",2.37e-06 ± 8e-08 m3/mol
